The values below come from patent US20140073639A1 (priority 2012, published 2014).

Converted amounts (≈) assume the structure as drawn. Bounds are passed on as bounds.

One may read the inhibition as the change of the read-out against control, counted positive when it falls.

Experiment [1] has as its system B. Anthracis. Put plainly: microbe, parasite or virus in culture. Format: cell-based. The note with it: for inhibition at 3 µM / inhibition at 10 µM / inhibition at 30 µM: Bacillus anthracis; for inhibition at 3 µM: read-out: B. Anthracis 3 μM (growth inhibition); for inhibition at 10 µM: read-out: B. Anthracis 10 μM (growth inhibition); for inhibition at 30 µM: read-out: B. Anthracis 30 μM (growth inhibition).

In experiment [2] the test system is S. MRSA. As to the kind of experiment: microbe, parasite or virus in culture. Format: cell-based. The note with it: for inhibition at 3 µM / inhibition at 10 µM / inhibition at 30 µM: Staphylococcus aureus, MRSA; for inhibition at 3 µM: read-out: S. MRSA 3 μM (growth inhibition); for inhibition at 10 µM: read-out: S. MRSA 10 μM (growth inhibition); for inhibition at 30 µM: read-out: S. MRSA 30 μM (growth inhibition).

The format of experiment [3] is cell-based.

Take `CCC(C(=O)O)N1C(=O)/C(=C\c2ccc(-c3ccc(Cl)c(Cl)c3)o2)NC1=S` (centres unmarked) [Cmpd 44]: in experiment [1], the inhibition at 3 µM worked out at 4.13%, the inhibition at 10 µM was 97.2% and the inhibition at 30 µM came out at 94%. For the same compound, in experiment [2], the inhibition at 3 µM is -2.47%, the inhibition at 10 µM worked out at 4.53% and the inhibition at 30 µM turned out to be 92.9%. In experiment [3], the “MIC, 25% Serum” value was greater than 250 µM and the “MIC, No Serum” value was determined as 250 µM (≈ 106 µg/mL).
Turning to `O=C(O)C(Cc1ccccc1)N1C(=O)/C(=C\c2ccc(-c3ccc(Cl)c(Cl)c3)o2)NC1=S` (centres unmarked) [Cmpd 46], in experiment [1], the “B. Anthracis 3 μM (growth inhibition)” value was 108.4, the “B. Anthracis 10 μM (growth inhibition)” value worked out at 108.46 and the “B. Anthracis 30 μM (growth inhibition)” value is on record as 106.96. Besides, in experiment [2], the “S. MRSA 3 μM (growth inhibition)” value was −17.39, the “S. MRSA 10 μM (growth inhibition)” value was 93.71 and the “S. MRSA 30 μM (growth inhibition)” value turned out to be 103.37. Also, in experiment [3], the “MIC, 25% Serum” value is greater than 250 µM and the “MIC, No Serum” value is 15.6 µM (≈ 7.6 µg/mL).
Take `O=C(O)[C@@H](Cc1ccccc1)N1C(=O)/C(=C\c2ccc(-c3ccc(Cl)c(Cl)c3)o2)NC1=S` [Cmpd 47]: in experiment [1], the inhibition at 3 µM is 9.41%, the inhibition at 10 µM worked out at 107% and the inhibition at 30 µM was 107%. In experiment [2], the inhibition at 3 µM is -13.8%, the inhibition at 10 µM stood at 84.4% and the inhibition at 30 µM was found to be 103%. Also, in experiment [3], the “MIC, 25% Serum” value stood at 250 µM (≈ 122 µg/mL) and the “MIC, No Serum” value came out at 7.8 µM (≈ 3.8 µg/mL).
`O=C(O)[C@H](Cc1ccccc1)N1C(=O)/C(=C\c2ccc(-c3ccc(Cl)c(Cl)c3)o2)NC1=S` [Cmpd 48]: in experiment [1], the inhibition at 3 µM was -0.39%, the inhibition at 10 µM worked out at 108% and the inhibition at 30 µM came to 107%. Besides, in experiment [2], the inhibition at 3 µM is -16.1%, the inhibition at 10 µM stood at 80.6% and the inhibition at 30 µM amounted to 104%. Besides, in experiment [3], the “MIC, 25% Serum” value was determined as 250 µM (≈ 122 µg/mL) and the “MIC, No Serum” value was found to be 7.8 µM (≈ 3.8 µg/mL).
As to `COc1ccc(-c2ccc(/C=C3/NC(=S)N([C@@H](Cc4ccccc4)C(=O)O)C3=O)o2)cc1Cl` [Cmpd 52], in experiment [1], the inhibition at 3 µM was -5.68%, the inhibition at 10 µM was 27.3% and the inhibition at 30 µM was 95.5%. In experiment [2], the inhibition at 3 µM was -7.99%, the inhibition at 10 µM was -11.7% and the inhibition at 30 µM is 82.2%. Also, in experiment [3], the “MIC, 25% Serum” value was greater than 250 µM and the “MIC, No Serum” value came out at 62.5 µM (≈ 30.2 µg/mL).
`O=C(O)[C@H](Cc1ccccc1)N1C(=O)/C(=C\c2ccc(-c3cc(C(F)(F)F)ccc3Cl)o2)NC1=S` [Cmpd 53]: in experiment [1], the inhibition at 3 µM was 88.2%, the inhibition at 10 µM turned out to be 95.5% and the inhibition at 30 µM amounted to 92.5%. For the same compound, in experiment [2], the inhibition at 3 µM is -4.72%, the inhibition at 10 µM worked out at 92.3% and the inhibition at 30 µM amounted to 92.9%. For the same compound, in experiment [3], the “MIC, 25% Serum” value is greater than 250 µM and the “MIC, No Serum” value worked out at 15.6 µM (≈ 8.13 µg/mL).
As for `NC(=O)C(Cc1ccccc1)N1C(=O)/C(=C\c2ccc(-c3ccc(Cl)c(Cl)c3)o2)NC1=S` (centres unmarked) [Cmpd 54], in experiment [1], the inhibition at 3 µM was 20.6%, the inhibition at 10 µM was 94.8% and the inhibition at 30 µM is 93%. For the same compound, in experiment [2], the inhibition at 3 µM was found to be 2.03%, the inhibition at 10 µM was 30.1% and the inhibition at 30 µM worked out at 57.5%. For the same compound, in experiment [3], the “MIC, 25% Serum” value was greater than 250 µM and the “MIC, No Serum” value was greater than 250 µM.
For `CCOC(=O)C(Cc1ccccc1)N1C(=O)/C(=C\c2ccc(-c3ccc(Cl)c(Cl)c3)o2)NC1=S` (centres unmarked) [Cmpd 55], in experiment [1], the inhibition at 10 µM was -50.8% and the inhibition at 30 µM was -6.41%. Besides, in experiment [2], the inhibition at 10 µM was found to be 0.57% and the inhibition at 30 µM is -2.92%. In addition, in experiment [3], the “MIC, 25% Serum” value is greater than 250 µM and the “MIC, No Serum” value is greater than 250 µM.
Turning to `CS(=O)(=O)NC(=O)C(Cc1ccccc1)N1C(=O)/C(=C\c2ccc(-c3ccc(Cl)c(Cl)c3)o2)NC1=S` (centres unmarked) [Cmpd 57], in experiment [1], the inhibition at 3 µM was determined as 45.2%, the inhibition at 10 µM is 96.4% and the inhibition at 30 µM was determined as 90.2%. In addition, in experiment [2], the inhibition at 3 µM came out at 3.18%, the inhibition at 10 µM came out at 30.9% and the inhibition at 30 µM is 58%. Besides, in experiment [3], the “MIC, 25% Serum” value was greater than 250 µM and the “MIC, No Serum” value was 15.6 µM (≈ 8.81 µg/mL).
As to `O=C(NS(=O)(=O)C(F)(F)F)C(Cc1ccccc1)N1C(=O)/C(=C\c2ccc(-c3ccc(Cl)c(Cl)c3)o2)NC1=S` (centres unmarked) [Cmpd 58], in experiment [1], the inhibition at 3 µM was found to be 69.4%, the inhibition at 10 µM stood at 98.7% and the inhibition at 30 µM stood at 97.4%. In experiment [2], the inhibition at 3 µM was 0.23%, the inhibition at 10 µM came to 81.7% and the inhibition at 30 µM was 94.5%. Further, in experiment [3], the “MIC, 25% Serum” value was greater than 250 µM and the “MIC, No Serum” value was determined as 7.8 µM (≈ 4.82 µg/mL).
On to `CCC(C(=O)NS(C)(=O)=O)N1C(=O)/C(=C\c2ccc(-c3ccc(Cl)c(Cl)c3)o2)NC1=S` (centres unmarked) [Cmpd 59], for which, in experiment [1], the inhibition at 3 µM was 6.4%, the inhibition at 10 µM is 6.23% and the inhibition at 30 µM was 19.6%. In experiment [2], the inhibition at 3 µM turned out to be 1.71%, the inhibition at 10 µM was 2.56% and the inhibition at 30 µM worked out at 0.06%. Moreover, in experiment [3], the “MIC, 25% Serum” value is greater than 250 µM and the “MIC, No Serum” value was 125 µM (≈ 62.8 µg/mL).
Turning to `O=C(O)C(Cc1ccccc1)N1C(=O)/C(=C\c2ccc(-c3ccccc3)o2)NC1=S` (centres unmarked) [Cmpd 60], in experiment [1], the inhibition at 3 µM was found to be 2.29%, the inhibition at 10 µM turned out to be 11.6% and the inhibition at 30 µM came to 18%. Further, in experiment [2], the inhibition at 3 µM was -2.55%, the inhibition at 10 µM is -5.71% and the inhibition at 30 µM is -8.8%. Also, in experiment [3], the “MIC, 25% Serum” value was greater than 250 µM and the “MIC, No Serum” value was 125 µM (≈ 52.3 µg/mL).
Consider `Cc1oc(=O)oc1COC(=O)C(Cc1ccccc1)N1C(=O)/C(=C\c2ccc(-c3ccc(Cl)c(Cl)c3)o2)NC1=S` (centres unmarked) [Cmpd 64], for which, in experiment [1], the inhibition at 3 µM is -0.01%, the inhibition at 10 µM was 0.22% and the inhibition at 30 µM is -1.34%. For the same compound, in experiment [2], the inhibition at 3 µM was found to be 0.71%, the inhibition at 10 µM was -1.48% and the inhibition at 30 µM is -3.34%. Moreover, in experiment [3], the “MIC, 25% Serum” value is greater than 250 µM and the “MIC, No Serum” value is greater than 250 µM.
Turning to `O=C([O-])C(Cc1ccccc1)N1C(=O)/C(=C\c2ccc(-c3ccc(Cl)c(Cl)c3)o2)NC1=S.[Na+]` (centres unmarked) [Cmpd 65], in experiment [1], the “B. Anthracis 3 μM (growth inhibition)” value worked out at 108.67, the “B. Anthracis 10 μM (growth inhibition)” value worked out at 107.86 and the “B. Anthracis 30 μM (growth inhibition)” value turned out to be 104.01. Besides, in experiment [2], the “S. MRSA 3 μM (growth inhibition)” value was 0.9, the “S. MRSA 10 μM (growth inhibition)” value amounted to 104.72 and the “S. MRSA 30 μM (growth inhibition)” value is given as 105.68. In experiment [3], the “MIC, 25% Serum” value is greater than 250 µM and the “MIC, No Serum” value turned out to be 7.8 µM.
For `O=C([O-])C(Cc1ccccc1)N1C(=O)/C(=C\c2ccc(-c3cccc(Cl)c3)o2)NC1=S.[Na+]` (centres unmarked) [Cmpd 67], in experiment [1], the inhibition at 3 µM turned out to be 6.01%, the inhibition at 10 µM was found to be 4.51% and the inhibition at 30 µM was found to be 87.6%. Further, in experiment [2], the inhibition at 3 µM was 0.37%, the inhibition at 10 µM is -4.15% and the inhibition at 30 µM was -7.41%. Further, in experiment [3], the “MIC, 25% Serum” value is greater than 250 µM and the “MIC, No Serum” value came out at 250 µM.
Regarding `N#CNC(=O)C(Cc1ccccc1)N1C(=O)/C(=C\c2ccc(-c3cccc(Cl)c3)o2)NC1=S` (centres unmarked) [Cmpd 68], in experiment [1], the inhibition at 3 µM was -1.9%, the inhibition at 10 µM is 6.31% and the inhibition at 30 µM came to 12.5%. In experiment [2], the inhibition at 3 µM is -0.24%, the inhibition at 10 µM was -1.1% and the inhibition at 30 µM is -0.93%. For the same compound, in experiment [3], the “MIC, 25% Serum” value is greater than 250 µM and the “MIC, No Serum” value came out at 125 µM (≈ 59.6 µg/mL).
For `N#CNC(=O)C(Cc1ccccc1)N1C(=O)/C(=C\c2ccc(-c3ccc(Cl)c(Cl)c3)o2)NC1=S` (centres unmarked) [Cmpd 69], in experiment [1], the inhibition at 3 µM stood at 0.13%, the inhibition at 10 µM was found to be 100% and the inhibition at 30 µM is 99.2%. In experiment [2], the inhibition at 3 µM turned out to be 0.03%, the inhibition at 10 µM was determined as 0.65% and the inhibition at 30 µM is 97.5%. In addition, in experiment [3], the “MIC, 25% Serum” value was 250 µM (≈ 128 µg/mL) and the “MIC, No Serum” value came out at 15.6 µM (≈ 7.98 µg/mL).
Turning to `O=C(O)C(Cc1ccccc1)N1C(=O)/C(=C\c2ccc(-c3ccnc(Cl)c3)o2)NC1=S` (centres unmarked) [Cmpd 70], in experiment [1], the inhibition at 3 µM came to 2.54%, the inhibition at 10 µM turned out to be 16% and the inhibition at 30 µM was 4.62%. Further, in experiment [2], the inhibition at 3 µM was -0.84%, the inhibition at 10 µM was -1.26% and the inhibition at 30 µM was -1.4%. For the same compound, in experiment [3], the “MIC, 25% Serum” value was greater than 250 µM and the “MIC, No Serum” value was determined as 125 µM (≈ 56.7 µg/mL).
For the compound `O=C(O)C(Cc1ccccc1)N1C(=O)/C(=C\c2ccc(Cl)c(Cl)c2)NC1=S` (centres unmarked) [Cmpd 71], in experiment [1], the inhibition at 3 µM was 0.05%, the inhibition at 10 µM is -8.93% and the inhibition at 30 µM was -17.3%. Moreover, in experiment [2], the inhibition at 3 µM was -0.86%, the inhibition at 10 µM is -2.74% and the inhibition at 30 µM was -5.12%. Further, in experiment [3], the “MIC, 25% Serum” value was greater than 250 µM and the “MIC, No Serum” value is greater than 250 µM.
For `O=C(O)C(Cc1ccccc1)N1C(=O)/C(=C\c2ccc(-c3ncc(Cl)cc3Cl)o2)NC1=S` (centres unmarked) [Cmpd 72], in experiment [1], the inhibition at 3 µM was -13.5%, the inhibition at 10 µM stood at 9.07% and the inhibition at 30 µM turned out to be 98.1%. For the same compound, in experiment [2], the inhibition at 3 µM was -2.17%, the inhibition at 10 µM was -5.02% and the inhibition at 30 µM worked out at 53%. In experiment [3], the “MIC, 25% Serum” value came to 250 µM (≈ 122 µg/mL) and the “MIC, No Serum” value turned out to be 62.5 µM (≈ 30.5 µg/mL).
